# PubChem BioAssay (NCI)
# “And” between values parts separate entries of the source, which are not always exact repeats. Equal entries are not always repeated.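 Where inhibition never reached the appropriate level, the endpoint shown equals the highest concentration tested. Otherwise, values were interpolated linearly from a five-concentration, 48-hour dose response in 96-well plates. Here, GI50 denotes the concentration required for 50% inhibition of growth. Definition used: TGI = concentration required for complete inhibition of growth.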
# What was measured:
# Experiment in all cases: NCI-60 cell line screen, 48 h
# 786-0 renal = tested on: 786-0 renal
# A498 renal = tested on: A498 renal
# A549 NSCLC = tested on: A549 NSCLC
# ACHN renal = tested on: ACHN renal
# BT-549 breast = tested on: BT-549 breast
# CCRF-CEM leukemia = tested on: CCRF-CEM leukemia
# DU-145 prostate = tested on: DU-145 prostate
# EKVX NSCLC = tested on: EKVX NSCLC
# HCC-2998 colon = tested on: HCC-2998 colon
# HCT-116 colon = tested on: HCT-116 colon
# HCT-15 colon = tested on: HCT-15 colon
# HL-60(TB) leukemia = tested on: HL-60(TB) leukemia
# HOP-62 NSCLC = tested on: HOP-62 NSCLC
# HOP-92 NSCLC = tested on: HOP-92 NSCLC
# HS 578T breast = tested on: HS 578T breast
# HT29 colon = tested on: HT29 colon
# IGROV1 ovarian = tested on: IGROV1 ovarian
# K-562 leukemia = tested on: K-562 leukemia
# KM12 colon = tested on: KM12 colon
# M14 melanoma = tested on: M14 melanoma
# MALME-3M melanoma = tested on: MALME-3M melanoma
# MCF7 breast = tested on: MCF7 breast
# MDA-MB-231 breast = tested on: MDA-MB-231 breast
# MDA-MB-435 = tested on: MDA-MB-435
# MDA-N = tested on: MDA-N
# MOLT-4 leukemia = tested on: MOLT-4 leukemia
# NCI-H226 lung = tested on: NCI-H226 lung
# NCI-H23 lung = tested on: NCI-H23 lung
# NCI-H460 lung = tested on: NCI-H460 lung
# NCI/ADR-RES ovarian = tested on: NCI/ADR-RES ovarian
# OVCAR-3 ovarian = tested on: OVCAR-3 ovarian
# OVCAR-5 ovarian = tested on: OVCAR-5 ovarian
# OVCAR-8 ovarian = tested on: OVCAR-8 ovarian
# PC-3 prostate = tested on: PC-3 prostate
# RXF 393 renal = tested on: RXF 393 renal
# SF-268 CNS = tested on: SF-268 CNS
# SF-295 CNS = tested on: SF-295 CNS
# SF-539 CNS = tested on: SF-539 CNS
# SK-MEL-2 melanoma = tested on: SK-MEL-2 melanoma
# SK-MEL-28 melanoma = tested on: SK-MEL-28 melanoma
# SK-MEL-5 melanoma = tested on: SK-MEL-5 melanoma
# SK-OV-3 ovarian = tested on: SK-OV-3 ovarian
# SN12C renal = tested on: SN12C renal
# SNB-19 CNS = tested on: SNB-19 CNS
# SR leukemia = tested on: SR leukemia
# SW-620 colon = tested on: SW-620 colon
# T-47D breast = tested on: T-47D breast
# TK-10 renal = tested on: TK-10 renal
# U251 CNS = tested on: U251 CNS
# UACC-62 melanoma = tested on: UACC-62 melanoma
# UO-31 renal = tested on: UO-31 renal
smiles,measurement,setting,value
CN1C2CC(C#N)C1C=CC2=O (stereo not given),GI50,786-0 renal,17.4 µM and > 100 µM
same,TGI,786-0 renal,42.6 µM and > 100 µM
same,GI50,A498 renal,17.5 µM and > 100 µM
same,TGI,A498 renal,35 µM and > 100 µM
same,GI50,A549 NSCLC,18.1 µM and > 100 µM
same,TGI,A549 NSCLC,46 µM and > 100 µM
same,GI50,ACHN renal,22.8 µM and > 100 µM
same,TGI,ACHN renal,76.9 µM and > 100 µM
same,GI50,BT-549 breast,38.7 µM and > 100 µM
same,TGI,BT-549 breast,75.1 µM and > 100 µM
same,TGI,CCRF-CEM leukemia,29.9 µM and > 100 µM
same,GI50,DU-145 prostate,22.8 µM and 58.9 µM
same,TGI,DU-145 prostate,61.1 µM and > 100 µM
same,GI50,EKVX NSCLC,14.7 µM and 62.1 µM
same,TGI,EKVX NSCLC,28 µM and > 100 µM
same,GI50,HCC-2998 colon,19.5 µM and > 100 µM
same,TGI,HCC-2998 colon,51.8 µM and > 100 µM
same,GI50,HCT-116 colon,13.4 µM and 43.8 µM
same,TGI,HCT-116 colon,27.2 µM and > 100 µM
same,GI50,HCT-15 colon,13.6 µM and > 100 µM
same,TGI,HCT-15 colon,40.7 µM and > 100 µM
same,TGI,HL-60(TB) leukemia,53.4 µM and > 100 µM
same,GI50,HOP-62 NSCLC,27.6 µM and > 100 µM
same,TGI,HOP-62 NSCLC,85.1 µM and > 100 µM
same,GI50,HOP-92 NSCLC,14.5 µM and 62.3 µM
same,TGI,HOP-92 NSCLC,31.4 µM and > 100 µM
same,GI50,HS 578T breast,35.4 µM and > 100 µM
same,TGI,HS 578T breast,> 100 µM
same,GI50,HT29 colon,17.5 µM and 83.8 µM
same,TGI,HT29 colon,59.5 µM and > 100 µM
same,GI50,IGROV1 ovarian,42.8 µM and > 100 µM
same,TGI,IGROV1 ovarian,> 100 µM
same,GI50,K-562 leukemia,14 µM and 78.1 µM
same,TGI,K-562 leukemia,90.2 µM and > 100 µM
same,GI50,KM12 colon,16.9 µM and 88.2 µM
same,TGI,KM12 colon,33.5 µM and > 100 µM
same,GI50,M14 melanoma,15.9 µM and > 100 µM
same,TGI,M14 melanoma,30.7 µM and > 100 µM
same,GI50,MALME-3M melanoma,14.8 µM and 96.6 µM
same,TGI,MALME-3M melanoma,31.4 µM and > 100 µM
same,TGI,MCF7 breast,> 100 µM
same,GI50,MDA-MB-231 breast,19.7 µM and > 100 µM
same,TGI,MDA-MB-231 breast,40.7 µM and > 100 µM
same,GI50,MDA-MB-435,16.9 µM and 89.2 µM
same,TGI,MDA-MB-435,36.7 µM and > 100 µM
same,GI50,MDA-N,19.2 µM and 63.3 µM
same,TGI,MDA-N,43.1 µM and > 100 µM
same,GI50,MOLT-4 leukemia,15.7 µM and > 100 µM
same,TGI,MOLT-4 leukemia,68.7 µM and > 100 µM
same,GI50,NCI-H226 lung,24 µM and > 100 µM
same,TGI,NCI-H226 lung,59.6 µM and > 100 µM
same,GI50,NCI-H23 lung,16.2 µM and 60.1 µM
same,TGI,NCI-H23 lung,48.6 µM and > 100 µM
same,GI50,NCI-H460 lung,15.8 µM and 73.2 µM
same,TGI,NCI-H460 lung,32.4 µM and > 100 µM
same,GI50,NCI/ADR-RES ovarian,25.7 µM and > 100 µM
same,TGI,NCI/ADR-RES ovarian,82.9 µM and > 100 µM
same,GI50,OVCAR-3 ovarian,15.5 µM and > 100 µM
same,TGI,OVCAR-3 ovarian,30.7 µM and > 100 µM
same,GI50,OVCAR-5 ovarian,19.6 µM and > 100 µM
same,TGI,OVCAR-5 ovarian,37.3 µM and > 100 µM
same,GI50,OVCAR-8 ovarian,24.5 µM and > 100 µM
same,TGI,OVCAR-8 ovarian,70.9 µM and > 100 µM
same,GI50,PC-3 prostate,26.3 µM and > 100 µM
same,TGI,PC-3 prostate,92.1 µM and > 100 µM
same,GI50,RXF 393 renal,16.7 µM and > 100 µM
same,TGI,RXF 393 renal,36.1 µM and > 100 µM
same,GI50,SF-268 CNS,27.2 µM and > 100 µM
same,TGI,SF-268 CNS,> 100 µM
same,TGI,SF-295 CNS,19.1 µM and > 100 µM
same,GI50,SF-539 CNS,18.6 µM and > 100 µM
same,TGI,SF-539 CNS,43.2 µM and > 100 µM
same,TGI,SK-MEL-2 melanoma,51.4 µM and > 100 µM
same,GI50,SK-MEL-28 melanoma,17.8 µM and > 100 µM
same,TGI,SK-MEL-28 melanoma,36.7 µM and > 100 µM
same,GI50,SK-MEL-5 melanoma,> 100 µM
same,TGI,SK-MEL-5 melanoma,> 100 µM
same,TGI,SK-OV-3 ovarian,62.4 µM and > 100 µM
same,GI50,SN12C renal,> 100 µM
same,TGI,SN12C renal,> 100 µM
same,TGI,SNB-19 CNS,> 100 µM
same,GI50,SR leukemia,24.2 µM and 86.1 µM
same,TGI,SR leukemia,> 100 µM
same,GI50,SW-620 colon,15.1 µM and 72.5 µM
same,TGI,SW-620 colon,43.7 µM and > 100 µM
same,GI50,T-47D breast,17.5 µM and > 100 µM
same,TGI,T-47D breast,45.1 µM and > 100 µM
same,GI50,TK-10 renal,40.5 µM and > 100 µM
same,TGI,TK-10 renal,> 100 µM
same,GI50,U251 CNS,12.4 µM and 72.1 µM
same,TGI,U251 CNS,61.5 µM and > 100 µM
same,GI50,UACC-62 melanoma,27.7 µM and 63.2 µM
same,TGI,UACC-62 melanoma,> 100 µM
same,GI50,UO-31 renal,11.4 µM and > 100 µM
same,TGI,UO-31 renal,24.1 µM and > 100 µM
